From patent US20020137929A1, “1 - (3-heterocyclylphenyl) isothiourea, -isourea, -guanidine and -amidine herbicidal agents” (Intellectual Property Department, BASF Aktiengesellschaft, priority 1998, published 2002)

How the values were obtained:
[1] = system: ABUTH (Velvetleaf); assay: Postemergence herbicidal evaluation; format: in vivo, Abutilon theophrasti; conditions: postemergence
How it was run: (§1)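 First, seedlings were raised for around two weeks. Next, test material in 50/50 acetone/water containing 0.5% TWEEN 20 was sprayed through a nozzle at 40 psi, equivalent to about 0.0156–0.500 kg/ha. Finally, after 4–5 weeks in the greenhouse, plants were rated 0–9.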

[2] = system: AMBEL (Ragweed, Common); assay: Postemergence herbicidal evaluation; format: in vivo, Ambrosia artemisifolia; conditions: postemergence
How it was run: as §1

[3] = system: IPOHE (Morningglory, Ivyleaf); assay: Postemergence herbicidal evaluation; format: in vivo, Ipomoea hederacea; conditions: postemergence
How it was run: as §1

[4] = system: ECHCG (Barnyardgrass); assay: Postemergence herbicidal evaluation; format: in vivo, Echinochloa crus-galli; conditions: postemergence
How it was run: as §1

[5] = system: SETVI (Foxtail, Green); assay: Postemergence herbicidal evaluation; format: in vivo, Setaria viridis; conditions: postemergence
How it was run: as §1

[6] = system: GLXMAW (Soybean, Williams); assay: Postemergence herbicidal evaluation; format: in vivo, Glycine max, (L.) Merr. cv Williams; conditions: postemergence
How it was run: as §1

[7] = system: TRZAWR (Wheat, Winter, cv Riband); assay: Postemergence herbicidal evaluation; format: in vivo, Triticum aestivum; conditions: postemergence
How it was run: as §1

[8] = system: CASOB (Sicklepod); assay: Preemergence herbicidal evaluation; format: in vivo, Cassia obtusifolia; conditions: rated 4-5 weeks after treatment; for CASOB rating: preemergence, 0-9 scale
How it was run: (§2)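 Visual 0-9 rating vs control (stand, vigor, malformation, size, chlorosis, overall appearance), scored 4-5 wk after spraying. Seeded soil cups were treated preemergence with compound in aqueous acetone, ~0.0156-0.500 kg/ha equivalent.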

[9] = system: CHEAL (Lambsquarters, Common); assay: Preemergence herbicidal evaluation; format: in vivo, Chenopodium album; conditions: rated 4-5 weeks after treatment; for CHEAL rating: preemergence, 0-9 scale
How it was run: as §2

[10] = system: GALAP (Galium); assay: Preemergence herbicidal evaluation; format: in vivo, Galium aparine; conditions: rated 4-5 weeks after treatment; for GALAP rating: preemergence, 0-9 scale
How it was run: as §2

[11] = system: IPOHE (Morningglory, Ivyleaf); assay: Preemergence herbicidal evaluation; format: in vivo, Ipomoea hederacea; conditions: rated 4-5 weeks after treatment; for IPOHE rating: preemergence, 0-9 scale
How it was run: as §2

[12] = system: ECHCG (Barnyardgrass); assay: Preemergence herbicidal evaluation; format: in vivo, Echinochloa crus-galli; conditions: rated 4-5 weeks after treatment; for ECHCG rating: preemergence, 0-9 scale
How it was run: as §2

[13] = system: ZEAMX (Corn, Field); assay: Preemergence herbicidal evaluation; format: in vivo, Zea mays; conditions: rated 4-5 weeks after treatment; for ZEAMX rating: preemergence, 0-9 scale
How it was run: as §2

[14] = system: ECHORC (Watergrass (Calif.)); assay: Postemergence weed control under flooded paddy conditions; format: in vivo, Echinochloa oryzoides; conditions: postemergence weeds, rated 3 to 4 weeks after treatment
How it was run: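 Injury ratings (0–9 scale covering stand, vigor, malformation, size, chlorosis and overall appearance versus control) were made three to four weeks after treatment. Test material, about 0.0313 to 0.500 kg/ha a.i. in 50/50 v/v aqueous/acetone, was added to flood water 1.5 to 3 cm deep over 3 to 5 cm weeds and 1.5 to 2.5 leaf rice.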

CCOC(=O)[C@H](Cc1ccccc1)N1C(=O)CSC1=Nc1cc(-n2c(=O)cc(C(F)(F)F)n(C)c2=O)c(F)cc1Cl [Compound 80, Ethyl α-benzyl-2-{{2-chloro-5-[3,6-dihydro-3-methyl-2,6-dioxo-4-(trifluoromethyl)-1(2H)-pyrimidinyl]-4-fluorophenyl}imino}-4-oxo-3-thiazolidineacetate, L-]
ABUTH herbicidal rating ([1]; rate 0.0158 kg/ha): 9.0 | ABUTH herbicidal rating ([1]; rate 0.0315 kg/ha): 9.0 | ABUTH herbicidal rating ([1]; rate 0.0630 kg/ha): 9.0 | AMBEL herbicidal rating ([2]; rate 0.0158 kg/ha): 9.0 | AMBEL herbicidal rating ([2]; rate 0.0315 kg/ha): 9.0 | AMBEL herbicidal rating ([2]; rate 0.0630 kg/ha): 7.0 | IPOHE herbicidal rating ([3]; rate 0.0158 kg/ha): 9.0 | IPOHE herbicidal rating ([3]; rate 0.0315 kg/ha): 9.0 | IPOHE herbicidal rating ([3]; rate 0.0630 kg/ha): 9.0 | ECHCG herbicidal rating ([4]; rate 0.0158 kg/ha): 1.0 | ECHCG herbicidal rating ([4]; rate 0.0315 kg/ha): 2.0 | ECHCG herbicidal rating ([4]; rate 0.0630 kg/ha): 3.0 | SETVI herbicidal rating ([5]; rate 0.0158 kg/ha): 1.0 | SETVI herbicidal rating ([5]; rate 0.0315 kg/ha): 2.0 | SETVI herbicidal rating ([5]; rate 0.0630 kg/ha): 4.0 | GLXMAW herbicidal rating ([6]; rate 0.0158 kg/ha): 4.5 | GLXMAW herbicidal rating ([6]; rate 0.0315 kg/ha): 5.5 | GLXMAW herbicidal rating ([6]; rate 0.0630 kg/ha): 6.5 | TRZAWR herbicidal rating ([7]; rate 0.0158 kg/ha): 3.5 | TRZAWR herbicidal rating ([7]; rate 0.0315 kg/ha): 3.5 | TRZAWR herbicidal rating ([7]; rate 0.0630 kg/ha): 4.0 | Preemergence herbicidal rating CASOB ([8]; rate 0.0156 kg/ha): 1.0 | Preemergence herbicidal rating CASOB ([8]; rate 0.0313 kg/ha): 0.0 | Preemergence herbicidal rating CASOB ([8]; rate 0.0625 kg/ha): 0.0 | Preemergence herbicidal rating CASOB ([8]; rate 0.1250 kg/ha): 9.0 | Preemergence herbicidal rating CASOB ([8]; rate 0.2500 kg/ha): 9.0 | Preemergence herbicidal rating CHEAL ([9]; rate 0.0156 kg/ha): 7.0 | Preemergence herbicidal rating CHEAL ([9]; rate 0.0313 kg/ha): 9.0 | Preemergence herbicidal rating CHEAL ([9]; rate 0.0625 kg/ha): 9.0 | Preemergence herbicidal rating CHEAL ([9]; rate 0.1250 kg/ha): 9.0 | Preemergence herbicidal rating CHEAL ([9]; rate 0.2500 kg/ha): 9.0 | Preemergence herbicidal rating GALAP ([10]; rate 0.0156 kg/ha): 0.0 | Preemergence herbicidal rating GALAP ([10]; rate 0.0313 kg/ha): 0.0 | Preemergence herbicidal rating GALAP ([10]; rate 0.0625 kg/ha): 0.0 | Preemergence herbicidal rating GALAP ([10]; rate 0.1250 kg/ha): 4.0 | Preemergence herbicidal rating GALAP ([10]; rate 0.2500 kg/ha): 4.0 | Preemergence herbicidal rating IPOHE ([11]; rate 0.0156 kg/ha): 0.0 | Preemergence herbicidal rating IPOHE ([11]; rate 0.0313 kg/ha): 0.0 | Preemergence herbicidal rating IPOHE ([11]; rate 0.0625 kg/ha): 0.0 | Preemergence herbicidal rating IPOHE ([11]; rate 0.1250 kg/ha): 4.0 | Preemergence herbicidal rating IPOHE ([11]; rate 0.2500 kg/ha): 9.0 | Preemergence herbicidal rating ECHCG ([12]; rate 0.0156 kg/ha): 0.0 | Preemergence herbicidal rating ECHCG ([12]; rate 0.0313 kg/ha): 0.0 | Preemergence herbicidal rating ECHCG ([12]; rate 0.0625 kg/ha): 0.0 | Preemergence herbicidal rating ECHCG ([12]; rate 0.1250 kg/ha): 1.0 | Preemergence herbicidal rating ECHCG ([12]; rate 0.2500 kg/ha): 0.0 | Preemergence herbicidal rating ZEAMX ([13]; rate 0.0156 kg/ha): 0.0 | Preemergence herbicidal rating ZEAMX ([13]; rate 0.0313 kg/ha): 0.0 | Preemergence herbicidal rating ZEAMX ([13]; rate 0.0625 kg/ha): 1.0 | Preemergence herbicidal rating ZEAMX ([13]; rate 0.1250 kg/ha): 3.0 | Preemergence herbicidal rating ZEAMX ([13]; rate 0.2500 kg/ha): 3.0 | Herbicidal rating ECHORC ([14]; Rate 0.0313 kg/ha): 9.0 | Herbicidal rating ECHORC ([14]; Rate 0.0625 kg/ha): 9.0 | Herbicidal rating ECHORC ([14]; Rate 0.1250 kg/ha): 9.0 | Herbicidal rating ECHORC ([14]; Rate 0.2500 kg/ha): 9.0

CCOC(=O)CN1C(=O)C(CC(=O)NOC)SC1=Nc1cc(-n2c(=O)cc(C(F)(F)F)n(C)c2=O)c(F)cc1Cl (stereo not drawn) [Compound 83, Ethyl 2-{{2-chloro-5-[3,6-dihydro-3-methyl-2,6-dioxo-4-(trifluoromethyl)-1(2H)-pyrimidinyl]-4-fluorophenyl}imino}-5-[(methoxycarbamoyl)methyl]-4-oxo-3-thiazolidineacetate]
ABUTH herbicidal rating ([1]; rate 0.0156 kg/ha): 9.0 | ABUTH herbicidal rating ([1]; rate 0.0313 kg/ha): 9.0 | ABUTH herbicidal rating ([1]; rate 0.0625 kg/ha): 9.0 | ABUTH herbicidal rating ([1]; rate 0.1250 kg/ha): 9.0 | AMBEL herbicidal rating ([2]; rate 0.0156 kg/ha): 9.0 | AMBEL herbicidal rating ([2]; rate 0.0313 kg/ha): 9.0 | AMBEL herbicidal rating ([2]; rate 0.0625 kg/ha): 9.0 | AMBEL herbicidal rating ([2]; rate 0.1250 kg/ha): 9.0 | IPOHE herbicidal rating ([3]; rate 0.0156 kg/ha): 9.0 | IPOHE herbicidal rating ([3]; rate 0.0313 kg/ha): 9.0 | IPOHE herbicidal rating ([3]; rate 0.0625 kg/ha): 9.0 | IPOHE herbicidal rating ([3]; rate 0.1250 kg/ha): 9.0 | ECHCG herbicidal rating ([4]; rate 0.0156 kg/ha): 0.0 | ECHCG herbicidal rating ([4]; rate 0.0313 kg/ha): 2.0 | ECHCG herbicidal rating ([4]; rate 0.0625 kg/ha): 4.0 | ECHCG herbicidal rating ([4]; rate 0.1250 kg/ha): 9.0 | SETVI herbicidal rating ([5]; rate 0.0156 kg/ha): 0.0 | SETVI herbicidal rating ([5]; rate 0.0313 kg/ha): 2.0 | SETVI herbicidal rating ([5]; rate 0.0625 kg/ha): 8.0 | SETVI herbicidal rating ([5]; rate 0.1250 kg/ha): 8.0 | GLXMAW herbicidal rating ([6]; rate 0.0156 kg/ha): 4.5 | GLXMAW herbicidal rating ([6]; rate 0.0313 kg/ha): 6.5 | GLXMAW herbicidal rating ([6]; rate 0.0625 kg/ha): 8.0 | GLXMAW herbicidal rating ([6]; rate 0.1250 kg/ha): 8.5 | TRZAWR herbicidal rating ([7]; rate 0.0156 kg/ha): 3.5 | TRZAWR herbicidal rating ([7]; rate 0.0313 kg/ha): 4.0 | TRZAWR herbicidal rating ([7]; rate 0.0625 kg/ha): 4.5 | TRZAWR herbicidal rating ([7]; rate 0.1250 kg/ha): 6.5 | CASOB rating ([8]; 0.0156 kg/ha): 0.0 | CASOB rating ([8]; 0.0313 kg/ha): 0.0 | CASOB rating ([8]; 0.0625 kg/ha): 0.0 | CASOB rating ([8]; 0.1250 kg/ha): 0.0 | CASOB rating ([8]; 0.2500 kg/ha): 3.0 | CASOB rating ([8]; 0.5000 kg/ha): 3.0 | CHEAL rating ([9]; 0.0156 kg/ha): 9.0 | CHEAL rating ([9]; 0.0313 kg/ha): 9.0 | CHEAL rating ([9]; 0.0625 kg/ha): 9.0 | CHEAL rating ([9]; 0.1250 kg/ha): 9.0 | CHEAL rating ([9]; 0.2500 kg/ha): 9.0 | CHEAL rating ([9]; 0.5000 kg/ha): 9.0 | GALAP rating ([10]; 0.0156 kg/ha): 0.0 | GALAP rating ([10]; 0.0313 kg/ha): 0.0 | GALAP rating ([10]; 0.0625 kg/ha): 0.0 | GALAP rating ([10]; 0.1250 kg/ha): 0.0 | GALAP rating ([10]; 0.2500 kg/ha): 9.0 | GALAP rating ([10]; 0.5000 kg/ha): 9.0 | IPOHE rating ([11]; 0.0156 kg/ha): 0.0 | IPOHE rating ([11]; 0.0313 kg/ha): 0.0 | IPOHE rating ([11]; 0.0625 kg/ha): 0.0 | IPOHE rating ([11]; 0.1250 kg/ha): 3.0 | IPOHE rating ([11]; 0.2500 kg/ha): 9.0 | IPOHE rating ([11]; 0.5000 kg/ha): 9.0 | ECHCG rating ([12]; 0.0156 kg/ha): 0.0 | ECHCG rating ([12]; 0.0313 kg/ha): 0.0 | ECHCG rating ([12]; 0.0625 kg/ha): 0.0 | ECHCG rating ([12]; 0.1250 kg/ha): 0.0 | ECHCG rating ([12]; 0.2500 kg/ha): 0.0 | ECHCG rating ([12]; 0.5000 kg/ha): 4.0 | ZEAMX rating ([13]; 0.0156 kg/ha): 0.0 | ZEAMX rating ([13]; 0.0313 kg/ha): 0.0 | ZEAMX rating ([13]; 0.0625 kg/ha): 0.0 | ZEAMX rating ([13]; 0.1250 kg/ha): 0.0 | ZEAMX rating ([13]; 0.2500 kg/ha): 0.0 | ZEAMX rating ([13]; 0.5000 kg/ha): 7.0 | Herbicidal rating ECHORC ([14]; Rate 0.0313 kg/ha): 5.0 | Herbicidal rating ECHORC ([14]; Rate 0.0625 kg/ha): 6.0 | Herbicidal rating ECHORC ([14]; Rate 0.1250 kg/ha): 7.0 | Herbicidal rating ECHORC ([14]; Rate 0.2500 kg/ha): 7.0
